Measurements taken from ChEMBL document CHEMBL3046894, “Synthesis and Herbicidal Activity of Pyrimidinyl Salicylic and Thiosalicylic Acids” (J Pestic Sci, 1996).
Calls of active or inactive are those of the source. The calls are words filed in the database; no cut-off is given here.

Legend:
Glycine max [1] = experiment: Post-emergence phytotoxicity against Glycine max (soybean) assessed as mortality at 1.6 g a.i/10 a applied 11 days after germination as foliar spray; type: organism-based; details: in vivo, other, 264 h
[2] = Post-emergence phytotoxicity against Gossypium hirsutum (cotton) assessed as mortality at 6.3 g a.i/10 a applied 11 days after germination as foliar spray; type: organism-based; details: in vivo, 6.3 g a.i/10 a
Glycine max [3] = experiment: Pre-emergence phytotoxicity against Glycine max (soybean) assessed as mortality at 1.6 g a.i/10 a; type: organism-based; details: in vivo, other
Ipomoea lacunosa [4] = experiment: Pre-emergence herbicidal activity against Ipomoea lacunosa assessed as mortality at 6.3 g a.i/10 a; type: functional
Zea mays [5] = experiment: Post-emergence phytotoxicity against Zea mays (maize) assessed as mortality at 6.3 g a.i/10 a applied 11 days after germination as foliar spray; type: organism-based; details: in vivo, other, 264 h
[6] = Pre-emergence phytotoxicity against Gossypium hirsutum (cotton) assessed as mortality at 6.3 g a.i/10 a; type: organism-based; details: in vivo, 6.3 g a.i/10 a, read-out: Activity
Glycine max [7] = experiment: Post-emergence phytotoxicity against Glycine max (soybean) assessed as mortality at 6.3 g a.i/10 a applied 11 days after germination as foliar spray; type: organism-based; details: in vivo, other, 264 h
Ipomoea lacunosa [8] = experiment: Pre-emergence herbicidal activity against Ipomoea lacunosa assessed as mortality at 1.6 g a.i/10 a; type: functional
Gossypium hirsutum [9] = experiment: Pre-emergence phytotoxicity against Gossypium hirsutum (cotton) assessed as mortality at 1.6 g a.i/10 a; type: organism-based; details: in vivo, other
Echinochloa crus-galli [10] = experiment: Post-emergence herbicidal activity against Echinochloa crus-galli (barnyard grass) assessed as mortality at 1.6 g a.i/10 a applied 11 days after germination as foliar spray; type: functional; details: 264 h
Zea mays [11] = experiment: Pre-emergence phytotoxicity against Zea mays (maize) assessed as mortality at 1.6 g a.i/10 a; type: organism-based; details: in vivo, other
Glycine max [12] = experiment: Pre-emergence phytotoxicity against Glycine max (soybean) assessed as mortality at 6.3 g a.i/10 a; type: organism-based; details: in vivo, other
Abutilon theophrasti [13] = experiment: Pre-emergence herbicidal activity against Abutilon theophrasti (velvetleaf) assessed as mortality at 1.6 g a.i/10 a; type: functional
Zea mays [14] = experiment: Post-emergence phytotoxicity against Zea mays (maize) assessed as mortality at 1.6 g a.i/10 a applied 11 days after germination as foliar spray; type: organism-based; details: in vivo, other, 264 h
[15] = Post-emergence phytotoxicity against Gossypium hirsutum (cotton) assessed as mortality at 1.6 g a.i/10 a applied 11 days after germination as foliar spray; type: organism-based; details: in vivo, 1.6 g a.i/10 a
Zea mays [16] = experiment: Pre-emergence phytotoxicity against Zea mays (maize) assessed as mortality at 6.3 g a.i/10 a; type: organism-based; details: in vivo, other
Echinochloa crus-galli [17] = experiment: Pre-emergence herbicidal activity against Echinochloa crus-galli (barnyard grass) assessed as mortality at 6.3 g a.i/10 a; type: functional
Abutilon theophrasti [18] = experiment: Pre-emergence herbicidal activity against Abutilon theophrasti (velvetleaf) assessed as mortality at 6.3 g a.i/10 a; type: functional
Persicaria nodosa [19] = experiment: Post-emergence herbicidal activity against Persicaria nodosa assessed as growth inhibition at 25 g a.i/10 a applied 11 days after germination as foliar spray; type: functional, organism-based
Amaranthus retroflexus [20] = experiment: Pre-emergence herbicidal activity against Amaranthus retroflexus assessed as growth inhibition at 25 g a.i/10 a; type: functional, organism-based
Xanthium strumarium [21] = experiment: Pre-emergence herbicidal activity against Xanthium strumarium (cocklebur) assessed as mortality per 10 acre; type: functional
Echinochloa crus-galli [22] = experiment: Post-emergence herbicidal activity against Echinochloa crus-galli (barnyard grass) assessed as mortality per 10 acre; type: functional
Ipomoea lacunosa [23] = experiment: Post-emergence herbicidal activity against Ipomoea lacunosa assessed as mortality per 10 acre; type: functional
Digitaria sanguinalis [24] = experiment: Pre-emergence herbicidal activity against Digitaria sanguinalis (hairy crabgrass) assessed as growth inhibition at 25 g a.i/10 a; type: functional, organism-based
Cyperus iria [25] = experiment: Post-emergence herbicidal activity against Cyperus iria assessed as growth inhibition at 25 g a.i/10 a applied 11 days after germination as foliar spray; type: functional, organism-based
Persicaria nodosa [26] = experiment: Pre-emergence herbicidal activity against Persicaria nodosa assessed as mortality per 10 acre; type: functional
Chenopodium album [27] = experiment: Pre-emergence herbicidal activity against Chenopodium album assessed as growth inhibition at 25 g a.i/10 a; type: functional, organism-based
Cyperus iria [28] = experiment: Pre-emergence herbicidal activity against Cyperus iria assessed as growth inhibition at 25 g a.i/10 a; type: functional, organism-based
Echinochloa crus-galli [29] = experiment: Post-emergence herbicidal activity against Echinochloa crus-galli (barnyard grass) assessed as growth inhibition at 25 g a.i/10 a applied 11 days after germination as foliar spray; type: functional, organism-based
Gossypium hirsutum [30] = experiment: Post-emergence phytotoxicity against Gossypium hirsutum (cotton) assessed as mortality per 10 acre; type: organism-based; details: in vivo
Ipomoea lacunosa [31] = experiment: Post-emergence herbicidal activity against Ipomoea lacunosa assessed as mortality at 6.3 g a.i/10 a applied 11 days after germination as foliar spray; type: functional; details: 264 h
Ipomoea lacunosa [32] = experiment: Pre-emergence herbicidal activity against Ipomoea lacunosa assessed as mortality per 10 acre; type: functional
Amaranthus retroflexus [33] = experiment: Post-emergence herbicidal activity against Amaranthus retroflexus assessed as growth inhibition at 25 g a.i/10 a applied 11 days after germination as foliar spray; type: functional, organism-based
Echinochloa crus-galli [34] = experiment: Pre-emergence herbicidal activity against Echinochloa crus-galli (barnyard grass) assessed as mortality per 10 acre; type: functional
Persicaria nodosa [35] = experiment: Pre-emergence herbicidal activity against Persicaria nodosa assessed as growth inhibition at 25 g a.i/10 a; type: functional, organism-based
Echinochloa crus-galli [36] = experiment: Pre-emergence herbicidal activity against Echinochloa crus-galli (barnyard grass) assessed as growth inhibition at 25 g a.i/10 a; type: functional, organism-based
Chenopodium album [37] = experiment: Post-emergence herbicidal activity against Chenopodium album assessed as growth inhibition at 25 g a.i/10 a applied 11 days after germination as foliar spray; type: functional, organism-based
Amaranthus retroflexus [38] = experiment: Pre-emergence herbicidal activity against Amaranthus retroflexus assessed as mortality per 10 acre; type: functional
Xanthium strumarium [39] = experiment: Post-emergence herbicidal activity against Xanthium strumarium (cocklebur) assessed as mortality per 10 acre; type: functional
Abutilon theophrasti [40] = experiment: Post-emergence herbicidal activity against Abutilon theophrasti (velvetleaf) assessed as mortality at 6.3 g a.i/10 a applied 11 days after germination as foliar spray; type: functional; details: 264 h
Persicaria nodosa [41] = experiment: Post-emergence herbicidal activity against Persicaria nodosa assessed as mortality per 10 acre; type: functional
Gossypium hirsutum [42] = experiment: Pre-emergence phytotoxicity against Gossypium hirsutum (cotton) assessed as mortality per 10 acre; type: organism-based; details: in vivo
Xanthium strumarium [43] = experiment: Pre-emergence herbicidal activity against Xanthium strumarium (cocklebur) assessed as mortality at 1.6 g a.i/10 a; type: functional
Digitaria sanguinalis [44] = experiment: Post-emergence herbicidal activity against Digitaria sanguinalis (hairy crabgrass) assessed as growth inhibition at 25 g a.i/10 a applied 11 days after germination as foliar spray; type: functional, organism-based
Amaranthus retroflexus [45] = experiment: Post-emergence herbicidal activity against Amaranthus retroflexus assessed as mortality per 10 acre; type: functional

COc1cc(OC)nc(Sc2cccc(C(F)(F)F)c2C(=O)O)n1
Activity (Glycine max [1]): Toxic
mortality at 264 h [2]: < 5%
Activity (Glycine max [3]): Non-toxic
Activity (Ipomoea lacunosa [4]): <50%
Activity (Zea mays [5]): Toxic
mortality [6]: < 50%
Activity (Glycine max [7]): Toxic
Activity (Ipomoea lacunosa [8]): <50%
Activity (Gossypium hirsutum [9]): < 50%
mortality at 16 g/ha (Echinochloa crus-galli [10]): < 5%
Activity (Zea mays [11]): Non-toxic
Activity (Glycine max [12]): Toxic
Activity (Abutilon theophrasti [13]): <50%
Activity (Zea mays [14]): Toxic
mortality at 264 h [15]: < 5%
Activity (Zea mays [16]): Toxic
Activity (Echinochloa crus-galli [17]): >90%
Activity (Abutilon theophrasti [18]): <50%

COc1cc(OC)nc(Sc2cccc(Cl)c2C(=O)O)n1 [PYRITHIOBAC]
growth inhibition (GI) (Persicaria nodosa [19]): Active
growth inhibition (GI) (Amaranthus retroflexus [20]): Active
Activity (Glycine max [1]): Toxic
mortality at 264 h [2]: < 5%
ED90 (Xanthium strumarium [21]): 25 gAi
Activity (Glycine max [3]): Non-toxic
ED90 (Echinochloa crus-galli [22]): 25 gAi
ED90 (Ipomoea lacunosa [23]): inactive
growth inhibition (GI) (Digitaria sanguinalis [24]): Active
growth inhibition (GI) (Cyperus iria [25]): Active
Activity (Ipomoea lacunosa [4]): <50%
ED90 (Persicaria nodosa [26]): inactive
mortality [6]: < 50%
growth inhibition (GI) (Chenopodium album [27]): Active
growth inhibition (GI) (Cyperus iria [28]): Active
growth inhibition (GI) (Echinochloa crus-galli [29]): Active
Activity (Ipomoea lacunosa [8]): <50%
Activity (Gossypium hirsutum [9]): < 50%
ED20 (Gossypium hirsutum [30]): 50 gAi
mortality at 63 g/ha (Ipomoea lacunosa [31]): > 90%
ED90 (Ipomoea lacunosa [32]): 25 gAi
growth inhibition (GI) (Amaranthus retroflexus [33]): Active
Activity (Zea mays [11]): Toxic
ED90 (Echinochloa crus-galli [34]): 25 gAi
Activity (Glycine max [12]): Non-toxic
growth inhibition (GI) (Persicaria nodosa [35]): Active
Activity (Zea mays [14]): Toxic
growth inhibition (GI) (Echinochloa crus-galli [36]): Active
mortality at 264 h [15]: < 5%
growth inhibition (GI) (Chenopodium album [37]): Active
ED90 (Amaranthus retroflexus [38]): 1.5 gAi
ED90 (Xanthium strumarium [39]): Active
Activity (Zea mays [16]): Toxic
mortality at 63 g/ha (Abutilon theophrasti [40]): > 90%
ED90 (Persicaria nodosa [41]): 1.5 gAi
ED20 (Gossypium hirsutum [42]): 50 gAi
Activity (Xanthium strumarium [43]): <50%
growth inhibition (GI) (Digitaria sanguinalis [44]): Active
ED90 (Amaranthus retroflexus [45]): 1.5 gAi
